From the supplement of paper PMC10627819

Legend:
S. aureus DSM 20231 = assay: Bliss interaction score (quartile over a dose matrix) (fitness difference); higher = more antagonism (negative = synergy)
Method in brief: (§1)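 Combination data were used to infer fitness under each single drug. Fitness is the OD595 at entry into stationary phase divided by the robust mean of the plate's no-drug wells, with a cap of 1. The Bliss score is the observed minus the expected product fitness, summarised by quartiles over technical, biological and donor/recipient replicates.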

B. subtilis 168 [1] = assay: as above
Method in brief: as §1

S. pneumoniae D39V [2] = assay: as above
Method in brief: as §1

S. aureus Newman [3] = assay: as above
Method in brief: as §1

B. subtilis 168 [4] = assay: fitness (endpoint OD595 vs no drug) (fraction); higher = more growth
Method in brief: (§2)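 Fitness was measured as bacterial growth in 384-well plates inoculated at OD595 0.01 (30 µl, or 55 µl for S. pneumoniae). Media were TSB, LB Lennox or CY, at 37 °C. OD595 was read every 30 min for 14 h and background-subtracted against the first reading. Fitness is OD595 at the transition into stationary phase divided by the robust mean of no-drug control wells, capped at 1.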

S. pneumoniae D39V [5] = assay: as above
Method in brief: as §2

S. aureus Newman [6] = assay: as above
Method in brief: as §2
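For Bliss interaction score (quartile over a dose matrix) in this document: first quartile when negative (synergy) and third quartile when positive (antagonism).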

CCC[C@@H]1C[C@@H](C(=O)N[C@@H]([C@H]2O[C@H](SC)[C@H](O)[C@@H](O)[C@H]2O)[C@H](C)Cl)N(C)C1 [Clindamycin] + CN[C@@H]1[C@H](O[C@H]2[C@H](O[C@H]3[C@H](O)[C@@H](O)[C@H](N=C(N)N)[C@@H](O)[C@@H]3N=C(N)N)O[C@@H](C)[C@]2(O)C=O)O[C@@H](CO)[C@H](O)[C@H]1O [Streptomycin]
Settings | Bliss interaction score
B. subtilis 168 [1] | -0.101
S. aureus DSM 20231 | -0.0299
S. aureus Newman [3] | -0.0908
S. pneumoniae D39V [2] | -0.0581

fitness, one replicate
Settings | first compound 0.0039 µg/mL | first compound 0.0078 µg/mL | first compound 0.015 µg/mL | first compound 0.0156 µg/mL | first compound 0.03 µg/mL | first compound 0.06 µg/mL
B. subtilis 168 [4], partner 2 µg/mL | ≥ 1 | 0.855 | – | 0.895 | – | –
B. subtilis 168 [4], partner 4 µg/mL | ≥ 1 | 1 | – | 0.951 | – | –
B. subtilis 168 [4], partner 8 µg/mL | 0.994 | 0.85 | – | 0.853 | – | –
S. pneumoniae D39V [5], partner 2 µg/mL | – | – | 0.889 | – | 0.767 | 0.621
S. pneumoniae D39V [5], partner 16 µg/mL | – | – | 0.712 | – | 0.564 | 0.424

fitness
Settings | partner 1 µg/mL | partner 2 µg/mL | partner 4 µg/mL | partner 8 µg/mL
B. subtilis 168 [4], first compound 0.0625 µg/mL | – | 0.531 | 0.082 | 0.0325
B. subtilis 168 [4], first compound 0.125 µg/mL | – | 0.398 | 0.0693 | 0.0279
B. subtilis 168 [4], first compound 0.25 µg/mL | – | 0.105 | 0.0596 | 0.0359
S. aureus Newman [6], first compound 0.0312 µg/mL | 0.679 | 0.571 | – | –
S. aureus Newman [6], first compound 0.125 µg/mL | 0.123 | 0.0638 | 0.0582 | –
S. pneumoniae D39V [5], first compound 0.0125 µg/mL | – | 0.646 | 0.69 | 0.733
S. pneumoniae D39V [5], first compound 0.015 µg/mL | – | – | 0.837 | 0.786
S. pneumoniae D39V [5], first compound 0.025 µg/mL | – | 0.445 | 0.426 | 0.46
S. pneumoniae D39V [5], first compound 0.03 µg/mL | – | – | 0.71 | 0.646
S. pneumoniae D39V [5], first compound 0.05 µg/mL | – | 0.177 | 0.21 | 0.202
S. pneumoniae D39V [5], first compound 0.06 µg/mL | – | – | 0.586 | 0.544

O=C(O[C@@H]1Cc2c(O)cc(O)cc2O[C@@H]1c1cc(O)c(O)c(O)c1)c1cc(O)c(O)c(O)c1 [EGCG] + C/C(=C\C(=O)OCCCCCCCCC(=O)O)C[C@@H]1OC[C@H](C[C@@H]2O[C@H]2[C@@H](C)[C@H](C)O)[C@@H](O)[C@H]1O [Pseudomonic acid]
Settings | Bliss interaction score
B. subtilis 168 [1] | -0.06
S. aureus DSM 20231 | -0.014
S. aureus Newman [3] | 0.0163
S. pneumoniae D39V [2] | -0.0856

fitness, S. pneumoniae D39V [5]
Settings | first compound 12.5 µg/mL | first compound 25 µg/mL | first compound 50 µg/mL
partner 0.03 µg/mL | 0.879 | 0.953 | 0.926
partner 0.06 µg/mL | 0.74 | 0.824 | –
partner 0.12 µg/mL | 0.494 | – | 0.545

fitness, S. aureus Newman [6], one replicate
Settings | first compound 12.5 µg/mL | first compound 25 µg/mL | first compound 50 µg/mL
partner 0.0313 µg/mL | 0.0563 | 0.0468 | 0.0316
partner 0.0625 µg/mL | 0.0491 | 0.0391 | 0.0458
partner 0.125 µg/mL | 0.0477 | 0.0401 | 0.0275

O=C(O[C@@H]1Cc2c(O)cc(O)cc2O[C@@H]1c1cc(O)c(O)c(O)c1)c1cc(O)c(O)c(O)c1 [EGCG] + CC(C1CCC(C(O1)OC2C(CC(C(C2O)OC3C(C(C(CO3)(C)O)NC)O)N)N)N)NC [Gentamicin]
main component drawn
Settings | Bliss interaction score
B. subtilis 168 [1] | 0.329
S. aureus DSM 20231 | 0.0682
S. aureus Newman [3] | -0.123
S. pneumoniae D39V [2] | 0.09

fitness, main component drawn
Settings | first compound 6.25 µg/mL | first compound 12.5 µg/mL | first compound 25 µg/mL | first compound 50 µg/mL
B. subtilis 168 [4], partner 0.0625 µg/mL | 0.944 | – | – | –
B. subtilis 168 [4], partner 0.125 µg/mL | 0.814 | – | – | –
B. subtilis 168 [4], partner 0.25 µg/mL | – | – | 0.142 | –
S. aureus Newman [6], partner 0.5 µg/mL | – | 0.738 | 0.69 | 0.584
S. aureus Newman [6], partner 1 µg/mL | – | 0.795 | 0.754 | 0.704
S. aureus Newman [6], partner 2 µg/mL | – | 0.797 | 0.766 | 0.709
S. pneumoniae D39V [5], partner 2 µg/mL | – | 0.922 | 0.947 | 0.913
S. pneumoniae D39V [5], partner 4 µg/mL | – | 0.947 | ≥ 1 | 0.989
S. pneumoniae D39V [5], partner 8 µg/mL | – | 0.936 | 0.945 | 0.942

fitness, S. aureus Newman [6], one replicate, main component drawn
Settings | first compound 12.5 µg/mL | first compound 25 µg/mL | first compound 50 µg/mL
partner 0.375 µg/mL | 0.802 | 0.805 | 0.993
partner 0.75 µg/mL | 0.773 | 0.762 | 0.62
partner 1.5 µg/mL | 0.251 | 0.0762 | 0

O=C(O[C@@H]1Cc2c(O)cc(O)cc2O[C@@H]1c1cc(O)c(O)c(O)c1)c1cc(O)c(O)c(O)c1 [EGCG] + CN(C)c1cc(NC(=O)CNC(C)(C)C)c(O)c2c1C[C@H]1C[C@H]3[C@H](N(C)C)C(O)=C(C(N)=O)C(=O)[C@@]3(O)C(O)=C1C2=O [Tigecycline]
Settings | Bliss interaction score
B. subtilis 168 [1] | 0.0564
S. aureus DSM 20231 | -0.0488
S. aureus Newman [3] | -0.067
S. pneumoniae D39V [2] | 0.079

fitness
Settings | first compound 6.25 µg/mL | first compound 12.5 µg/mL | first compound 25 µg/mL | first compound 50 µg/mL
B. subtilis 168 [4], partner 0.039 µg/mL | 0.929 | – | – | –
B. subtilis 168 [4], partner 0.078 µg/mL | 0.929 | – | – | –
B. subtilis 168 [4], partner 0.156 µg/mL | 0.91 | – | – | –
S. aureus Newman [6], partner 0.039 µg/mL | – | 0.755 | 0.744 | –
S. aureus Newman [6], partner 0.078 µg/mL | – | 0.797 | 0.788 | 0.657
S. aureus Newman [6], partner 0.156 µg/mL | – | 0.82 | 0.721 | 0.796
S. pneumoniae D39V [5], partner 0.325 µg/mL | – | 0.913 | 0.97 | 0.958
S. pneumoniae D39V [5], partner 0.65 µg/mL | – | 0.912 | 0.971 | 0.951
S. pneumoniae D39V [5], partner 1.3 µg/mL | – | 0.928 | 0.916 | 0.954
S. pneumoniae D39V [5], partner 2.6 µg/mL | – | 0.897 | 0.929 | 0.935

fitness, B. subtilis 168 [4], one replicate
Settings | first compound 6.25 µg/mL | first compound 12.5 µg/mL | first compound 25 µg/mL
partner 0.125 µg/mL | ≥ 1 | 0.897 | 0.55
partner 0.25 µg/mL | 0.944 | 0.72 | 0.428
partner 0.5 µg/mL | 0.942 | 0.757 | 0.418
